Results: PMC8632988, “Inhibition of SYK and cSrc kinases can protect bone and cartilage in preclinical models of osteoarthritis and rheumatoid arthritis” (Scientific Reports, 2021)
Values joined by “and” are separate entries in the source; they are usually repeats but may differ in a detail not shown here. Identical values can stand only once.

Test system: DBA/1 mice, CIA model
Assay: Collagen-induced arthritis model in mice
Assay type: in vivo, mouse
Conditions: QD
Protocol: Collagen-induced arthritis (CIA) model was performed at Bolder BioPATH, USA. Study design and animal usage was approved by Bolder BioPATH’s Institutional Animal Care and Use Committee. CIA was induced in 6–7 week old male DBA/1 mice with body weight of 15–26 g (Harlan, Inc) by intradermal injection of Freund’s Complete Adjuvant (Difco) containing bovine type II collagen (Bolder BioPATH) on day 0 and again on day 21 according to the standard protocol. […] After that mice were randomized into six groups: a control group of four, vehicle group and four treatment groups of ten mice each. […] Each paw was scored daily for inflammation. Therapeutic and prophylactic paws were considered. At study termination mice were euthanized by CO2 inhalation followed by cervical dislocation. Fore paws, hind paws, and knees were removed for microscopy.
Mice were weighed on arthritis days 1, 3, 5, 7, 9, and 11 (prior to necropsy). Daily clinical scores were given for each of the paws (right front, left front, right rear, left rear) on days 1–11 using the following criteria:
After 1–2 days in fixative and 4–5 days in 5% formic acid for decalcification, tissues were trimmed, processed for paraffin embedding, sectioned at 8 µm and stained with toluidine blue. Hind paws and knees were embedded and sectioned in the frontal plane. Two joints from each animal were processed for histopathology evaluation. The joints were then scored by two independent readers as indicated below. When scoring, severity of changes as well as number of individual joints affected were considered. When only 1–3 joints of the paws or ankles out of a possibility of numerous metacarpal/metatarsal/digit or tarsal/tibiotarsal joints were affected, an arbitrary assignment of a maximum score of 1, 2 or 3 for parameters below was given depending on severity of changes. If more than 3 joints were involved, the criteria below were applied to the most severely affected/majority of joints.

CN(Cc1cnc2nc(N)nc(N)c2n1)c1ccc(C(=O)N[C@@H](CCC(=O)O)C(=O)O)cc1 [MTX, methotrexate, reference compound]
% inhibition to Vehicle, Paw Score Total AUC Sum (d1-11) (1.5 mg/kg PO): 12% | Paw Score Total AUC Sum (d1-11) (1.5 mg/kg PO, group Mean): 28.46 | Paw Score Total AUC Sum (d1-11) (1.5 mg/kg PO, individual animals): 19.25 and 28.75 and 18.25 and 23.38 and 30.63 and 34.25 and 31.00 and 24.88 and 33.25 and 41.00 | % inhibition to Vehicle, Average Paw Score (Day 1, 1.5 mg/kg PO): 0% | Average Paw Score Per Arthritis Day (All Paws) (Day 1, 1.5 mg/kg PO, group Mean): 0.80 | Average Paw Score Per Arthritis Day (All Paws) (Day 1, 1.5 mg/kg PO, individual animals, 1.5 mg/kg): 0.50 and 1.00 and 1.50 | % inhibition to Vehicle, Average Paw Score (Day 2, 1.5 mg/kg PO): 19% | Average Paw Score Per Arthritis Day (All Paws) (Day 2, 1.5 mg/kg PO, group Mean): 1.48 | Average Paw Score Per Arthritis Day (All Paws) (Day 2, 1.5 mg/kg PO, individual animals, 1.5 mg/kg): 0.50 and 1.25 and 1.50 and 1.00 and 2.00 and 1.75 and 2.50 | % inhibition to Vehicle, Average Paw Score (Day 3, 1.5 mg/kg PO): 20% | Average Paw Score Per Arthritis Day (All Paws) (Day 3, 1.5 mg/kg PO, group Mean): 2.13 | Average Paw Score Per Arthritis Day (All Paws) (Day 3, 1.5 mg/kg PO, individual animals, 1.5 mg/kg): 0.75 and 1.75 and 2.00 and 2.50 and 2.75 and 3.00 | % inhibition to Vehicle, Average Paw Score (Day 4, 1.5 mg/kg PO): 10% | Average Paw Score Per Arthritis Day (All Paws) (Day 4, 1.5 mg/kg PO, group Mean): 2.85 | Average Paw Score Per Arthritis Day (All Paws) (Day 4, 1.5 mg/kg PO, individual animals, 1.5 mg/kg): 1.75 and 3.00 and 2.00 and 2.25 and 2.50 and 2.75 and 4.00 | % inhibition to Vehicle, Average Paw Score (Day 5, 1.5 mg/kg PO): 9% | Average Paw Score Per Arthritis Day (All Paws) (Day 5, 1.5 mg/kg PO, group Mean): 3.15 | Average Paw Score Per Arthritis Day (All Paws) (Day 5, 1.5 mg/kg PO, individual animals, 1.5 mg/kg): 2.25 and 2.00 and 4.00 and 2.75 and 4.75 | % inhibition to Vehicle, Average Paw Score (Day 6, 1.5 mg/kg PO): 11% | Average Paw Score Per Arthritis Day (All Paws) (Day 6, 1.5 mg/kg PO, individual animals, 1.5 mg/kg): 2.50 and 2.00 and 2.25 and 4.00 and 2.75 and 4.75 | % inhibition to Vehicle, Average Paw Score (Day 7, 1.5 mg/kg PO): 12% | Average Paw Score Per Arthritis Day (All Paws) (Day 7, 1.5 mg/kg PO, individual animals, 1.5 mg/kg): 2.50 and 2.00 and 2.25 and 4.00 and 2.75 and 4.75 | % inhibition to Vehicle, Average Paw Score (Day 8, 1.5 mg/kg PO): 13% | Average Paw Score Per Arthritis Day (All Paws) (Day 8, 1.5 mg/kg PO, individual animals, 1.5 mg/kg): 2.50 and 2.00 and 3.75 and 4.00 and 2.75 and 4.75 | % inhibition to Vehicle, Average Paw Score (Day 9, 1.5 mg/kg PO): 13% | Average Paw Score Per Arthritis Day (All Paws) (Day 9, 1.5 mg/kg PO, individual animals, 1.5 mg/kg): 2.50 and 2.00 and 3.00 and 4.00 and 4.25 and 2.75 and 3.75 and 5.00 | % inhibition to Vehicle, Average Paw Score (Day 10, 1.5 mg/kg PO): 12% | Average Paw Score Per Arthritis Day (All Paws) (Day 10, 1.5 mg/kg PO, individual animals, 1.5 mg/kg): 2.50 and 2.00 and 4.75 and 4.50 and 2.75 and 4.00 and 5.00 | % inhibition to Vehicle, Average Paw Score (Day 11, 1.5 mg/kg PO): 12% | Average Paw Score Per Arthritis Day (All Paws) (Day 11, 1.5 mg/kg PO, individual animals, 1.5 mg/kg): 2.50 and 2.00 and 4.75 and 4.50 and 2.75 and 4.00 and 5.00 | % inhibition to Vehicle, Total AUC Sum (d1-11) (MTX 1.5 mg/kg PO): 21% | Summed Prophylactic (Non-Enrollment) Paw Score (MTX 1.5 mg/kg PO, Day 1, group mean): 0.00 | Summed Prophylactic (Non-Enrollment) Paw Score (MTX 1.5 mg/kg PO, Day 1, individual animals): 0 | % inhibition to Vehicle, Summed Prophylactic (Non-Enrollment) Paw Score (MTX 1.5 mg/kg PO, Day 2): 38% | Summed Prophylactic (Non-Enrollment) Paw Score (MTX 1.5 mg/kg PO, Day 2, group mean): 1.60 | Summed Prophylactic (Non-Enrollment) Paw Score (MTX 1.5 mg/kg PO, Day 2, individual animals): 0 and 2 and 1 and 5 and 4 | % inhibition to Vehicle, Summed Prophylactic (Non-Enrollment) Paw Score (MTX 1.5 mg/kg PO, Day 3): 30% | Summed Prophylactic (Non-Enrollment) Paw Score (MTX 1.5 mg/kg PO, Day 3, group mean): 3.30 | Summed Prophylactic (Non-Enrollment) Paw Score (MTX 1.5 mg/kg PO, Day 3, individual animals): 0 and 3 and 1 and 4 and 7 and 8 and 5 and 2 | % inhibition to Vehicle, Summed Prophylactic (Non-Enrollment) Paw Score (MTX 1.5 mg/kg PO, Day 4): 20% | Summed Prophylactic (Non-Enrollment) Paw Score (MTX 1.5 mg/kg PO, Day 4, group mean): 5.10 | Summed Prophylactic (Non-Enrollment) Paw Score (MTX 1.5 mg/kg PO, Day 4, individual animals): 3 and 4 and 1 and 6 and 10 | % inhibition to Vehicle, Summed Prophylactic (Non-Enrollment) Paw Score (MTX 1.5 mg/kg PO, Day 5): 19% | Summed Prophylactic (Non-Enrollment) Paw Score (MTX 1.5 mg/kg PO, Day 5, group mean): 5.90 | Summed Prophylactic (Non-Enrollment) Paw Score (MTX 1.5 mg/kg PO, Day 5, individual animals): 5 and 4 and 1 and 9 and 12 and 10 and 6 | % inhibition to Vehicle, Summed Prophylactic (Non-Enrollment) Paw Score (MTX 1.5 mg/kg PO, Day 6): 21% | Summed Prophylactic (Non-Enrollment) Paw Score (MTX 1.5 mg/kg PO, Day 6, group mean): 6.00 | Summed Prophylactic (Non-Enrollment) Paw Score (MTX 1.5 mg/kg PO, Day 6, individual animals): 6 and 4 and 1 and 9 and 12 and 10 | % inhibition to Vehicle, Summed Prophylactic (Non-Enrollment) Paw Score (MTX 1.5 mg/kg PO, Day 7): 22% | Summed Prophylactic (Non-Enrollment) Paw Score (MTX 1.5 mg/kg PO, Day 7, group mean): 6.10 | Summed Prophylactic (Non-Enrollment) Paw Score (MTX 1.5 mg/kg PO, Day 7, individual animals): 6 and 5 and 4 and 1 and 9 and 12 and 10 | % inhibition to Vehicle, Summed Prophylactic (Non-Enrollment) Paw Score (MTX 1.5 mg/kg PO, Day 8): 22% | Summed Prophylactic (Non-Enrollment) Paw Score (MTX 1.5 mg/kg PO, Day 8, group mean): 6.30 | Summed Prophylactic (Non-Enrollment) Paw Score (MTX 1.5 mg/kg PO, Day 8, individual animals): 6 and 5 and 4 and 2 and 10 and 12 | % inhibition to Vehicle, Summed Prophylactic (Non-Enrollment) Paw Score (MTX 1.5 mg/kg PO, Day 9): 20% | Summed Prophylactic (Non-Enrollment) Paw Score (MTX 1.5 mg/kg PO, Day 9, group mean): 6.80 | Summed Prophylactic (Non-Enrollment) Paw Score (MTX 1.5 mg/kg PO, Day 9, individual animals): 6 and 5 and 4 and 3 and 11 and 13 and 10 and 7 | % inhibition to Vehicle, Summed Prophylactic (Non-Enrollment) Paw Score (MTX 1.5 mg/kg PO, Day 10): 16% | Summed Prophylactic (Non-Enrollment) Paw Score (MTX 1.5 mg/kg PO, Day 10, group mean): 7.40 | Summed Prophylactic (Non-Enrollment) Paw Score (MTX 1.5 mg/kg PO, Day 10, individual animals): 6 and 5 and 4 and 14 and 10 and 8 | % inhibition to Vehicle, Summed Prophylactic (Non-Enrollment) Paw Score (MTX 1.5 mg/kg PO, Day 11): 16%
